Experiments:
HBV = experiment: In vitro antiviral assay for HBV (Table 1); assay type: cell-based, Hepatitis B virus; conditions: Hepatitis B virus, read-out: Antiviral Activities (EC50, μM) HBV
Procedure: (§1) The antiviral assays for HBV, (Doong et al., 1991, Proc. Natl. Acad. Sci. U.S.A. 88:8495-8499) HSV-1, (Bastow et al., 1983, Antimicrob. Agents Chemother. 23: 914-917) HSV-2, (Bastow et al., 1983, Antimicrob. Agents Chemother. 23:914-917) EBV, (Yao et al., 1993, Antimicrob. Agents Chemother. 37:1420-1425), CMV (Andreoni et al., 2002, J. Med. Virol. 67:33-40) and HIV (Mellors et al., 1992, Mol. Pharmacol. 41: 446-451) were performed according to the previously reported procedures. Anti-HCV activities were tested in Huh-Luc/neo cell line. Cells were seeded into 48-well plates and grown until confluent. Different concentrations of drugs were added into media (DMEM, 10% dFBS) and incubated for 3 days. At the end of 3-day treatment, medium were removed and 50 μl of Passive lysis buffer (Promega) were added. Cell lysate was shaken at room temperature for 15 min. 30 μl/well of cell lysate was transferred to another 96-well plate, 100 μl/well of luciferase activity assay substrate was added into plate and read by a luminometer (Amersham) immediately.

HCV = experiment: Anti-HCV activity in Huh-Luc/neo cell line, luciferase activity after 3-day treatment; assay type: cell-based, Hepatitis C virus; conditions: Hepatitis C virus, 72 h, Huh-Luc/neo cells, 3 days; for EC50: given as a bound only, read-out: Antiviral Activities (EC50, μM) HCV
Procedure: as §1

HSV-1 = experiment: In vitro antiviral assay for HSV-1; assay type: cell-based, Herpes Simplex Virus 1; conditions: for EC50: Human alphaherpesvirus 1, read-out: Antiviral Activities (EC50, μM) HSV-1
Procedure: as §1

HSV-2 = experiment: In vitro antiviral assay for HSV-2; assay type: cell-based, Herpes Simplex Virus 2; conditions: for EC50: Human alphaherpesvirus 2, read-out: Antiviral Activities (EC50, μM) HSV-2
Procedure: as §1

EBV = experiment: In vitro antiviral assay for EBV; assay type: cell-based, Epstein-Barr Virus; conditions: human gammaherpesvirus 4, read-out: Antiviral Activities (EC50, μM) EBV
Procedure: as §1

CMV = experiment: In vitro antiviral assay for CMV; assay type: cell-based, cytomegalovirus; conditions: Human betaherpesvirus 5, read-out: Antiviral Activities (EC50, μM) CMV
Procedure: as §1

HIV = experiment: In vitro antiviral assay for HIV; assay type: cell-based, human immunodeficiency virus; conditions: Human immunodeficiency virus 1, read-out: Antiviral Activities (EC50, μM) HIV, in vitro; (T) after a value means toxic
Procedure: as §1

[1] = Cell cytotoxicity assay on MT-2 cells; assay type: cell-based; conditions: human, read-out: Cytotoxity (ID50, μM) MT-2
Procedure: (§2) Cytotoxicities of test compounds on MT-2 (Mellors et al., 1992 Mol. Pharmacol. 41:446-451) and CEM (Grove et al., 1995, Cancer Res. 55:3008-3011) cells were determined according to the previously reported procedures. Hepg2 cells were seeded at a density of 10^4 cells/ml/well in 24-well plates and cultured in MEME supplemented with 10% FBS at 37° C. and 5% CO2. Each test compound at different concentrations was added on the second day of the culture and the cells were incubated for another 3 days. At the end of the incubation period, the medium was removed and 0.5 ml of 0.5% methylene blue in 50% ethanol (v/v) was added to each well and set at room temperature for 30-60 minutes. The methylene blue was removed; the plates were washed with water and allowed to air dry. Once dry, 1% sarcosyl was added to dissolve the stained cell layer. The absorbance at 595 nm was measured with a microplate reader (Molecular Devices Corp. Sunnyvale, Calif.). The cytotoxicity to CEM cell was calculated as described previously (Grove et al., 1995, Cancer Res. 55 (14): 3008-3011).

[2] = Cell cytotoxicity assay on CEM cells; assay type: cell-based; conditions: human, read-out: Cytotoxity (ID50, μM) CEM
Procedure: as §2

[3] = read-out: HCV percent of inhibition

SMILES	EC50 (HBV) [µM]	inhibition at 3 µM (HCV; [3]) [%]	EC50 (HSV-1) [µM]	times more potent than the reference drug acylclovir against HSV-1 (HSV-1; ratio of EC50 values)	EC50 (HSV-2) [µM]	times more potent than the reference drug acylclovir against HSV-2 (HSV-2; ratio of EC50 values) [times]	EC50 (EBV) [µM]	EC50 (CMV) [µM]	EC50 (HIV) [µM]	IC50 [1] [µM]	IC50 [2] [µM]	EC50 (HCV) [µM]	inhibition at 10 µM (HCV; at 10 μM, read-out: HCV percent of inhibition) [%]	melting point
NC(=O)c1cc2ccc3c(c2c(-c2ccc4c(c2)OCO4)c1C(=O)O)OCO3 [Compound 12, 9-Benzo[1,3]dioxol-5-yl-7-carbamoyl-naphtho[1,2-d][1,3]dioxole-8-carboxylic acid]	0.8	58	0.15	about 140 times	< 0.1	~210	9	0.45	> 5	5	8.4	–	–	–
O=C(NCCCOCc1ccccc1)c1cc2ccc3c(c2c(-c2ccc4c(c2)OCO4)c1COCc1ccccc1)OCO3 [Compound 8, 9-Benzo[1,3]dioxol-5-yl-8-benzyloxymethyl-naphtho[1,2-d][1,3]dioxole-7-carboxylic acid (3-benzyloxy-propyl)-amide]	> 10	–	> 25	–	> 25	–	> 15	3.7	> 100	> 100	10	> 10	–	–
O=C([O-])c1cc2c(I)cc3c(c2c(-c2ccc4c(c2)OCO4)c1CO)OCO3.[Na+] [Compound 46, 9-Benzo[1,3]dioxol-5-yl-8-hydroxymethyl-5-iodo-naphtho[1,2-d][1,3]dioxole-7-carboxylic acid monosodium salt]	> 18	–	> 50	–	> 50	–	> 20	> 20	> 80	80	> 100	–	36	212 °C (dec.)
O=C1OC(=O)c2c1cc1ccc3c(c1c2-c1ccc2c(c1)OCO2)OCO3 [Compound 1, 10-Benzo[1,3]dioxol-5-yl-furo[3′,4′:6,7]naphtho[1,2-d][1,3]dioxole-7,9-dione]	> 10	–	> 50	–	> 50	–	> 20	17.6	> 100	> 100	> 50	> 10	–	–
O=C1c2cc3ccc4c(c3c(-c3ccc5c(c3)OCO5)c2C(=O)N1O)OCO4 [Compound 24, 10-Benzo[1,3]dioxol-5-yl-8-hydroxy-1,3-dioxa-8-aza-dicyclopenta[a,g]naphthalene-7,9-dione]	> 5	–	> 30	–	> 30	–	> 5	4.1	> 16	16	17	> 10	–	255 °C (dec.)
O=C1c2cc3ccc4c(c3c(-c3ccc5c(c3)OCO5)c2C(=O)N1CCCO)OCO4 [Compound 29, 10-Benzo[1,3]dioxol-5-yl-8-(3-hydroxy-propyl)-1,3-dioxa-8-aza-dicyclopenta[a,g]naphthalene-7,9-dione]	> 5	–	> 30	–	> 30	–	> 5	8.1	> 22	22	27	> 10	–	150 to 152 °C
O=C1OCc2c1cc1c(Br)cc3c(c1c2-c1ccc2c(c1)OCO2)OCO3 [Compound 38, 10-Benzo[1,3]dioxol-5-yl-5-bromo-9H-furo[3′,4′:6,7]naphtho[1,2-d][1,3]dioxol-7-one]	> 60	–	> 50	–	> 50	–	> 15	–	> 100	> 100	100	> 10	–	256 °C (dec.)
O=C1OCc2c1cc1c(I)cc3c(c1c2-c1ccc2c(c1)OCO2)OCO3 [Compound 39, 10-Benzo[1,3]dioxol-5-yl-5-iodo-9H-furo[3′,4′:6,7]naphtho[1,2-d][1,3]dioxol-7-one]	> 40	–	> 25	–	> 25	–	> 10	–	> 80	80	70	> 10	–	255 °C (dec.)
O=C1OCc2c1cc1c(Cl)cc3c(c1c2-c1ccc2c(c1)OCO2)OCO3 [Compound 37, 10-Benzo[1,3]dioxol-5-yl-5-chloro-9H-furo[3′,4′:6,7]naphtho[1,2-d][1,3]dioxol-7-one]	> 10	–	23	–	> 25	–	> 20	8.8	> 50	50	27	> 10	–	267 °C (dec.)
CC(=O)NN1C(=O)c2cc3ccc4c(c3c(-c3ccc5c(c3)OCO5)c2C1=O)OCO4 [Compound 25, N-(10-Benzo[1,3]dioxol-5-yl-7,9-dioxo-7,9-dihydro-1,3-dioxa-8-aza-dicyclopenta[a,g]naphthalen-8-yl)-acetamide]	> 10	–	> 40	–	> 40	–	> 20	–	> 100	> 100	93	> 10	–	281 to 283 °C
CN1Cc2cc3ccc4c(c3c(-c3ccc5c(c3)OCO5)c2C1=O)OCO4 [Compound 17, 10-Benzo[1,3]dioxol-5-yl-8-methyl-7,8-dihydro-1,3-dioxa-8-aza-dicyclopenta[a,g]naphthalen-9-one]	> 10	29	14	–	14	–	> 20	–	> 26	26	27	–	–	242 to 244 °C
O=C(O)c1cc2ccc3c(c2c(-c2ccc4c(c2)OCO4)c1COCc1ccccc1)OCO3 [Compound 5, 9-Benzo[1,3]dioxol-5-yl-8-benzyloxymethyl-naphtho[1,2-d][1,3]dioxole-7-carboxylic acid]	> 10	–	> 25	–	> 25	–	> 20	–	> 48	48	> 50	> 10	–	219 to 221 °C
CN1Cc2c(cc3ccc4c(c3c2-c2ccc3c(c2)OCO3)OCO4)C1=O [Compound 19, 10-Benzo[1,3]dioxol-5-yl-8-methyl-8,9-dihydro-1,3-dioxa-8-aza-dicyclopenta[a,g]naphthalen-7-one]	1.6	–	0.67	–	1	–	> 20	–	> 8	8	6	> 3	–	234 to 236 °C
O=C([O-])c1cc2c(Cl)cc3c(c2c(-c2ccc4c(c2)OCO4)c1CO)OCO3.[Na+] [Compound 44, 9-Benzo[1,3]dioxol-5-yl-5-chloro-8-hydroxymethyl-naphtho[1,2-d][1,3]dioxole-7-carboxylic acid monosodium salt]	> 10	–	> 50	–	> 50	–	> 20	> 20	> 60	60	> 100	> 10	–	220 °C (dec.)
